# The source made the active and inactive calls.
# Legend:
# Ion channel NompC = Ion channel NompC (Danio rerio, UniProt Q7T1G6); assay: Dose response cell-based high-throughput screening assay for agonists of the transient receptor potential channel N1 (TRPN1). [Related pubchem assays (depositor defined):AID1424, AID1448]; format: functional
# NADPH oxidase 1 = target: T1, NADPH oxidase 1 (Homo sapiens, UniProt Q9Y5S8); assay: Luminescence-based cell-based dose response assay to identify inhibitors of NADPH oxidase 1 (NOX1).; format: functional
# T1 sequence (Q9Y5S8 whole entry): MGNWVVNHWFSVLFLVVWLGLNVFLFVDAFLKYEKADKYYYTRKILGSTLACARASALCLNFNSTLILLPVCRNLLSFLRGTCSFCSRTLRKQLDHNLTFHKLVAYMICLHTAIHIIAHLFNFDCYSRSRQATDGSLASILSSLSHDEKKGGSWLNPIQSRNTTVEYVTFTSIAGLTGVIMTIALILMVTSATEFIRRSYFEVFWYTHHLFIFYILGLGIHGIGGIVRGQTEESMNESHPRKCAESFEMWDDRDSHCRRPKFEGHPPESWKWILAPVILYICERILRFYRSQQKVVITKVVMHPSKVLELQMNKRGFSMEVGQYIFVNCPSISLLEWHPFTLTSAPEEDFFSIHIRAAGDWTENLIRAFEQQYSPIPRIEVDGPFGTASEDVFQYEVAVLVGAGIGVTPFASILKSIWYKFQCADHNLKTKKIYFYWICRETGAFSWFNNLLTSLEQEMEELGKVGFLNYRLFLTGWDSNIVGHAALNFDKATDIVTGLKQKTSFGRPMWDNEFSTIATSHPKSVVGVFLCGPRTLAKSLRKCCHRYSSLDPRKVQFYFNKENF
# Mucolipin-3 = target: T2, Mucolipin-3 (Homo sapiens, UniProt Q8TDD5); assay: Fluorescence counterscreen assay for […] agonists: dose response cell-based high-throughput screening assay to identify agonists of the transient receptor potential channel ML3 (TRPML3). [Related pubchem assays: 1424, 1448 ]; format: functional
# T2 sequence (Q8TDD5 whole entry): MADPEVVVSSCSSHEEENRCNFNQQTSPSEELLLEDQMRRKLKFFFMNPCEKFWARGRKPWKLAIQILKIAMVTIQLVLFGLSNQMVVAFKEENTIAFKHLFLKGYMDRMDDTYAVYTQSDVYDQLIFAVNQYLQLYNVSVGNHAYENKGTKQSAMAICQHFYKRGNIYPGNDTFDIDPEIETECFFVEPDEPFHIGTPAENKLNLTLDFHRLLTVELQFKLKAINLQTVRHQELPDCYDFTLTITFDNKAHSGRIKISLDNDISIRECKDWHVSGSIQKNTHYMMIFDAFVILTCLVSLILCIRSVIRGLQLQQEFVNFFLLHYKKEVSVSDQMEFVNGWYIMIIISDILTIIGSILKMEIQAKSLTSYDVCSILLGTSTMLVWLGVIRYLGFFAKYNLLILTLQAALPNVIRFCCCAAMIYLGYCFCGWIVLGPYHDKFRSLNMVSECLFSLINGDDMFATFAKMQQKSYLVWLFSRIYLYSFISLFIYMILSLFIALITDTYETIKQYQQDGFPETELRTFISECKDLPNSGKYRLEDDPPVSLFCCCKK
# [1] = target: Induced myeloid leukemia cell differentiation protein Mcl-1 (Homo sapiens, UniProt Q07820); format: functional
# Nonstructural protein 1 = Nonstructural protein 1 (Influenza A virus, UniProt Q194T2); format: functional, Influenza A virus (A/California/07/2009(H1N1))
# [2] = target: FAD-linked sulfhydryl oxidase ALR (Homo sapiens, UniProt P55789); assay: inhibitors of human ALR sulfhydryl oxidase, dose response, biochemical, H2O2 detection, luminescence, cherry-pick (AID 493248)
# [3] = Luminescent dose response cell-based high throughput screening assay for inhibitors of the Janus kinase 2 mutant JAK2V617F. [Related pubchem assays: 1446 (Primary screen.), 1521 (Confirmation assay.), 1486 (Counter screen.)]; format: functional
# [4] = cytotoxicity in HPDE-C7 cells, cell-based, fluorescence, HTS (AID 430); format: functional; settings: Homo sapiens
# [5] = inhibitors of intracellular T. cruzi replication, confirmation, NIH3T3 host cells, beta-gal luminescence (AID 2044); format: functional, cell-based;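 further: intracellular parasites grown in NIH/3T3 mouse fibroblasts as host cells; luminescent beta-galactosidase reporter signal from transgenic T. cruzi replicating inside host cells; inhibitors lower the luminescence signal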
# [6] = cytotoxicity in KRAS-transformed pancreatic duct cells, primary screen, cell-based, fluorescence, HTS (AID 431); format: functional; settings: Homo sapiens;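 further: cell line used: HPDE-C7K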
# [7] = cytotoxicity toward NIH3T3 fibroblasts, dose response, counter-screen, cell-based, ATP luminescence, mouse fibroblasts (AID 2010); format: functional;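 further: cells exposed to compound for about 90 hours before reading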
# [8] = target: DNA damage-inducible transcript 3 protein (Mus musculus, UniProt P35639); format: functional, Cricetulus griseus
# [9] = target: T3, Replicative DNA helicase DnaB (Mycobacterium tuberculosis, UniProt P9WMR3); assay: DnaB intein splicing inhibitors, dose response, biochemical, cell-free fluorescence (AID 449749); format: functional
# T3 sequence (P9WMR3 whole entry): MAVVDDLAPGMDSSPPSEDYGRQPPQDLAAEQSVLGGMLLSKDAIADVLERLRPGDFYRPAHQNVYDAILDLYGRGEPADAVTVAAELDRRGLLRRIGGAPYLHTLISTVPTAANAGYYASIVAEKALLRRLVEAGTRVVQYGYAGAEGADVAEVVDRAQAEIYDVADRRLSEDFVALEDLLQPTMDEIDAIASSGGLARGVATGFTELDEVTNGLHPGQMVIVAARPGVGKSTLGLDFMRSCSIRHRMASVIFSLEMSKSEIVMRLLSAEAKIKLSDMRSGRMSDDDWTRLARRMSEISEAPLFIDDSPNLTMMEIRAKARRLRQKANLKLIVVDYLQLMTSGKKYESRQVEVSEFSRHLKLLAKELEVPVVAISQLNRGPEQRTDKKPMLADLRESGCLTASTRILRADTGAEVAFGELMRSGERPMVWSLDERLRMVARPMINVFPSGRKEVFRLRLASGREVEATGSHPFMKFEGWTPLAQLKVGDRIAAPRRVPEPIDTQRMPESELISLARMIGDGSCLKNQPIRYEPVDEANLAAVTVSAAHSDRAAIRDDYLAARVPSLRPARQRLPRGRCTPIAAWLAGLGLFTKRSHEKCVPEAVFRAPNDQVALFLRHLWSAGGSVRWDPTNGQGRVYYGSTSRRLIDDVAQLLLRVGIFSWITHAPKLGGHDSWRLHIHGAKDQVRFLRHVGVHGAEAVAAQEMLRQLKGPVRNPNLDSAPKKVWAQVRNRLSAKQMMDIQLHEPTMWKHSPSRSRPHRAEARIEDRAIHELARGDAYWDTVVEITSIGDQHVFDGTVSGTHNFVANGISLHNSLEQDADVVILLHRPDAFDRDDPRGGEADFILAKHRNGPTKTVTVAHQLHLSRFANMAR
# Protein RecA = target: T4, Protein RecA (Mycobacterium tuberculosis, UniProt P9WHJ3); assay: Fluorescence Cell-Free Homogeneous Dose Retest to Identify Inhibitors of RecA-Intein Splicing Activity. [Related pubchem assays (depositor defined):AID2097, AID2223, AID489010, AID492950]; format: functional
# T4 sequence (P9WHJ3 whole entry): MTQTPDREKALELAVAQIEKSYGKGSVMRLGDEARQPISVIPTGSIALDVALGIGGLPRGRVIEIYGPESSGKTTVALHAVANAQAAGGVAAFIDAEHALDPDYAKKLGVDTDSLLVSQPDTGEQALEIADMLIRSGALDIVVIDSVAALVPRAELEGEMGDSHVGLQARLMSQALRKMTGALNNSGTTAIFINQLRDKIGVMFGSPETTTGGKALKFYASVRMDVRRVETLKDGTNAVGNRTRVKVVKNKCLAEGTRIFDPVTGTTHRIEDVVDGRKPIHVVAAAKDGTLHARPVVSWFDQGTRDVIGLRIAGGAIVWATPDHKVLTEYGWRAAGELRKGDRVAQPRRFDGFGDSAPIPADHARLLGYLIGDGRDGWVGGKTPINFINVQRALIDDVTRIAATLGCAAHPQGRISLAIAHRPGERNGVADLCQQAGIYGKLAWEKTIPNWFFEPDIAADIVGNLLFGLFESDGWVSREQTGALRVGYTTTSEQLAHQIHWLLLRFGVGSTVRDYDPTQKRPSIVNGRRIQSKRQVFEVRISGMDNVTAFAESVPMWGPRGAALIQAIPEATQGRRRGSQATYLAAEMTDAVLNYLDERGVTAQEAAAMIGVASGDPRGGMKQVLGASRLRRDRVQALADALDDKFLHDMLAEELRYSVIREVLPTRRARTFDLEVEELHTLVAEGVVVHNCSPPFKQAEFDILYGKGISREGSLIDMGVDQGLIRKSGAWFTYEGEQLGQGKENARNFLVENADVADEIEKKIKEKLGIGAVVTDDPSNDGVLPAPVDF
# T-cell = assay: inhibitors of CD8+ T cell–vesicle binding, dose response, mouse 2C CD8+ T cells, flow cytometry (AID 485284); format: functional
# Coagulation factor XII = target: T5, Coagulation factor XII (Homo sapiens, UniProt P00748); assay: Factor XIIa Dose Response Confirmation from Single Well HTS. [Related pubchem assays (depositor defined):AID701]; format: functional
# T5 sequence (P00748 whole entry): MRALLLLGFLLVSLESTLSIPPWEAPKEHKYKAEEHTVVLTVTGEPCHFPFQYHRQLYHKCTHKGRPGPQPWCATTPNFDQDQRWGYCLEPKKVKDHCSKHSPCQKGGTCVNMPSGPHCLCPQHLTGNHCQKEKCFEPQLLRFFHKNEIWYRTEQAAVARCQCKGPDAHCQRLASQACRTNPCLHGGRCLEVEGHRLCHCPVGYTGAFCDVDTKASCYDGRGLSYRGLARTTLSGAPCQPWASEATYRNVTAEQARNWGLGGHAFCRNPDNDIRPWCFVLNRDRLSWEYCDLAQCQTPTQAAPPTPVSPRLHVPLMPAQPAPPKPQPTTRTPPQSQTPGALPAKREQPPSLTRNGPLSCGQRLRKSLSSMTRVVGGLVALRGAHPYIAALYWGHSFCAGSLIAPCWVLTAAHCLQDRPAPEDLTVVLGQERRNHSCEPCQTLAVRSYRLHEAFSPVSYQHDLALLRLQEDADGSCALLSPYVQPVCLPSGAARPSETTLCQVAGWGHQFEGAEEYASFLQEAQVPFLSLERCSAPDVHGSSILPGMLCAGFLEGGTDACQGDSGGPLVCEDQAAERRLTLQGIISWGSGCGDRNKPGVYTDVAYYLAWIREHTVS
# Induced myeloid leukemia cell differentiation protein Mcl-1, sequence (Q07820 whole entry): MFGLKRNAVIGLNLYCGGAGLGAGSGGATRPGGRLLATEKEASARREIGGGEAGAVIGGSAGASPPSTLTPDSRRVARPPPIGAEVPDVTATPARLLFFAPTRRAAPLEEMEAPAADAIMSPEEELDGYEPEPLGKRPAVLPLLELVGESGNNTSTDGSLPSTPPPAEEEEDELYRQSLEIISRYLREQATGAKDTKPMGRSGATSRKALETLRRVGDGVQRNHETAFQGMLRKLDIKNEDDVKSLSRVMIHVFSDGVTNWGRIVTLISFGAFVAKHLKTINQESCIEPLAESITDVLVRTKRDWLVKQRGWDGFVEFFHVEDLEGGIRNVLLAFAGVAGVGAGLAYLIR
# DNA damage-inducible transcript 3 protein, sequence (P35639 whole entry): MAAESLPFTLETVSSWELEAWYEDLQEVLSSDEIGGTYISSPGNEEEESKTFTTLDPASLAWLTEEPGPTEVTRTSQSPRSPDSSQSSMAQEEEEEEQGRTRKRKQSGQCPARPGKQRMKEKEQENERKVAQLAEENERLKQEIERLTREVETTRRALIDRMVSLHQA
# FAD-linked sulfhydryl oxidase ALR, sequence (P55789 whole entry): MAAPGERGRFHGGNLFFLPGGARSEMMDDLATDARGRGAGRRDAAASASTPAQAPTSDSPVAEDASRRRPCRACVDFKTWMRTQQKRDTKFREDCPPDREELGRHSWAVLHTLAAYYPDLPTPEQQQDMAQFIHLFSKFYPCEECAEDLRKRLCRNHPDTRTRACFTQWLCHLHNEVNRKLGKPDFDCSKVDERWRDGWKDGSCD
# Nonstructural protein 1, sequence (Q194T2 whole entry): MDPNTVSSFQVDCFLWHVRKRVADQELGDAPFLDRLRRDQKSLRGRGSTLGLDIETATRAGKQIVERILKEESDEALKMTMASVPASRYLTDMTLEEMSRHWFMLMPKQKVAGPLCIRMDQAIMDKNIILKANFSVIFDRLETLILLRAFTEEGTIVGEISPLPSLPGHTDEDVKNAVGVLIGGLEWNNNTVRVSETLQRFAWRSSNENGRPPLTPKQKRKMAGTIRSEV
# Ion channel NompC, sequence (Q7T1G6 whole entry): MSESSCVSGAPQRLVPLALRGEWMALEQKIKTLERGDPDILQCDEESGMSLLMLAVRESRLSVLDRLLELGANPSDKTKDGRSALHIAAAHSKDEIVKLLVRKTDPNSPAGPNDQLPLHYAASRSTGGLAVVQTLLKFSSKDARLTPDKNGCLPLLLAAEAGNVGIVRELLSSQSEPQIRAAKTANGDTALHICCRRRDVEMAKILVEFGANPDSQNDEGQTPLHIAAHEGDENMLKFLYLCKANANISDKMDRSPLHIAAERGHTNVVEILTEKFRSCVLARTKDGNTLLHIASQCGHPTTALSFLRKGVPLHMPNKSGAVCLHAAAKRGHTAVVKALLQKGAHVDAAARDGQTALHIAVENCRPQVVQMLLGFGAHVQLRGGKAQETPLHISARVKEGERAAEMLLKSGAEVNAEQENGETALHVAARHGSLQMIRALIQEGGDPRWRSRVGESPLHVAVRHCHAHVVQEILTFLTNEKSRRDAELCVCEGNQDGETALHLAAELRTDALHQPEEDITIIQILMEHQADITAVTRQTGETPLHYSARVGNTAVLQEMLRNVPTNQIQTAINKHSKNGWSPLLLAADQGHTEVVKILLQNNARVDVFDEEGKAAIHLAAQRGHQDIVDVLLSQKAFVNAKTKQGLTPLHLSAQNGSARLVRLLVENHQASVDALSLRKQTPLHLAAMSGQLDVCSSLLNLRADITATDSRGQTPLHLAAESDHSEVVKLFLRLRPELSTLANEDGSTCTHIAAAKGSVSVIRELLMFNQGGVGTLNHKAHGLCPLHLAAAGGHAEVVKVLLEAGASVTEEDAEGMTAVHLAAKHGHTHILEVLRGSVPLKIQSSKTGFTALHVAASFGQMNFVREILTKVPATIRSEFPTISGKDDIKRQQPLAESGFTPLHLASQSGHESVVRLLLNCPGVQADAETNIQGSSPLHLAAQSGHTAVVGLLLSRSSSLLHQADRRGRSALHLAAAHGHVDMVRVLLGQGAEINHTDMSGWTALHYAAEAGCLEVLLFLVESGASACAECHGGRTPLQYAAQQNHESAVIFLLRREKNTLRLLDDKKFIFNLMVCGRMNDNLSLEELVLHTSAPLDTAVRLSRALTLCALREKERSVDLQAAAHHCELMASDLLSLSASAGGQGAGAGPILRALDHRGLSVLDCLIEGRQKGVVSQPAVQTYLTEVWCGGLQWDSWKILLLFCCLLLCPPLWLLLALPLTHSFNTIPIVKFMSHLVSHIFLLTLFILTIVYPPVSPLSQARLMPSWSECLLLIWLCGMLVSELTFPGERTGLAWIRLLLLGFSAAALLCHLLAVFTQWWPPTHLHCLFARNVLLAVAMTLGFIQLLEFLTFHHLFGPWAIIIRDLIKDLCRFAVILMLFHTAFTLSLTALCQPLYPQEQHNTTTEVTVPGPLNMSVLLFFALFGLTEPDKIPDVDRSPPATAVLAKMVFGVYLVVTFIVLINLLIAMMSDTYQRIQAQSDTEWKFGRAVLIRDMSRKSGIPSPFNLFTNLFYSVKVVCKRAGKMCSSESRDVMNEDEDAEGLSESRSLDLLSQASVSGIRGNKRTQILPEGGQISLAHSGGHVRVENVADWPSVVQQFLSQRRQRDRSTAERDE
smiles,measurement,setting,value
CN(C)c1ccc(NC(=O)Nc2ccc3snnc3c2)cc1,EC50,Ion channel NompC,> 29.9 µM (inactive)
same,IC50,NADPH oxidase 1,0.187 µM (active)
same,EC50,Mucolipin-3,> 29.9 µM (not active)
same,IC50,[1],0.455 µM (active)
same,IC50,Nonstructural protein 1,> 100 µM (active)
same,AC50,[2],0.204 µM (active)
CS(=O)(=O)c1nc(-c2ccco2)cc(C(F)(F)F)n1,IC50,[3],0.644 µM (active)
same,EC50,[4],6.49 µM (active)
same,EC50,[5],1.61 µM (active)
same,EC50,[6],5.96 µM (active)
same,EC50,[7],3.73 µM (active)
same,Absolute IC50 (CHOP),[8],10 µM
same,AC50,[9],> 380 µM (inactive)
same,EC50,Protein RecA,> 380 µM (inactive)
COc1ccc([C@H]2CC(=O)C=C(c3ccc(OC)nc3)C2)cc1,EC50,T-cell,3.19 µM (active)
CCc1ccc(C(=O)COC(=O)c2cccs2)cc1,IC50,Coagulation factor XII,> 50 µM (inactive)

# — ChEMBL document CHEMBL1201862, “PubChem BioAssay data set” (2004)
